# Values quoted from earlier work, collected in patent US6500632B1, “Assay for screening inhibitors of C4 plant enzymes” (Australian Institute of Marine Science, priority 1998, dated 2002).
# Key:
# [1] = molecular target: T1, phosphoenolpyruvate carboxylase (Zea mays, UniProt P04711); details: literature (Jenkins et al.; McFadden et al.)
# T1 sequence (P04711 1-970): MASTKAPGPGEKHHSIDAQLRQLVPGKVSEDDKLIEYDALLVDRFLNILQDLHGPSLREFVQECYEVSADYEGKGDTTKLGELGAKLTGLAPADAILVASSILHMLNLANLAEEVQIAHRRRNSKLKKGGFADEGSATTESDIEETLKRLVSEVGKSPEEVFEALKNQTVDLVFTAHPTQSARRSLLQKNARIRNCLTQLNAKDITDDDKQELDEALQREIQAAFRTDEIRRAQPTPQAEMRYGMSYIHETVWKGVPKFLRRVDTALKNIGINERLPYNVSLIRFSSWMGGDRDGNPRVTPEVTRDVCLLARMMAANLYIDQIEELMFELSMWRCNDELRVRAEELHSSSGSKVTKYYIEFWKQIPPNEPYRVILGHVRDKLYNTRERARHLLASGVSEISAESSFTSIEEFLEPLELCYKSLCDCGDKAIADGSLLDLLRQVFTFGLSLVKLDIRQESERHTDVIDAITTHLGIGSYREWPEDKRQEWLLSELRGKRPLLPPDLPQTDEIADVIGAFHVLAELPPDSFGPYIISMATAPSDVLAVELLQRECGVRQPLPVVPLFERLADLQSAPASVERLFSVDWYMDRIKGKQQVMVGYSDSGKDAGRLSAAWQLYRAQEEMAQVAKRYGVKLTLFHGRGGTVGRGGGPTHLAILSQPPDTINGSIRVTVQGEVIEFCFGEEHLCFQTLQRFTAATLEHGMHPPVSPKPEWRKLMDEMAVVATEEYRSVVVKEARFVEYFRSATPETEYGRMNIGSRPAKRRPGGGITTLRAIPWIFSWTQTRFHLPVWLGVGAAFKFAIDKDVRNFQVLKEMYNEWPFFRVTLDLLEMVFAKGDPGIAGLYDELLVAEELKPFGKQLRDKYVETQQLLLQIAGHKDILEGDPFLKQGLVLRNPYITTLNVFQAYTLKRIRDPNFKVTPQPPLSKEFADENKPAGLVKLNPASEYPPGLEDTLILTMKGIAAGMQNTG
# C4 plants = details: literature
substance,measurement,setting,value
"3,3-dichloro-2(dihydroxy-phosphinoylmethyl)propenoate",inhibition of a C4 enzyme (phosphoenolpyruvate carboxylase),[1],specifically inhibited
same,effect on the growth of C4 plants,C4 plants,no effect
